Consider 2 compounds from patent publication US9464117B2, “Herbicide-resistant proteins, encoding genes, and uses thereof” (Beijing Dabeinong Technology Group Co., Ltd., priority 2012, dated 2016).

Common to all, as to assay type: in vivo
For test [1], the system named is Arabidopsis T1 plants transformed with 24DT07 nucleotide sequence. Put plainly: Herbicide resistance effect test of transgenic Arabidopsis T1 plants. The settings on record: for differences of resistance levels between Arabidopsis T1 plants transformed with 24DT07, substituted, truncated and added 24DT07 nucleotide sequence: comparison of the four 24DT07 genotypes, 560 g ae/ha; for Highly resistant: 560 g ae/ha sprayed (1-fold field concentration), number of plants with growth consistent with blank solvent 7 days after spraying; for Non-resistant: number of dead plants 14 days after spraying. The source says: (§1) 24DT07 gene was used to transform Arabidopsis for the first time. At first, T1 transformants were selected from the background of un-transformed seeds, using glufosinate-ammonium selection scheme. About 40000 T1 seeds are screened among which 195 strains of T1 generation positive transformants (PAT gene) were identified, i.e. the transformation efficiency was about 0.5%. Herbicide resistance effect tests to 2,4-D dimethyl ammonium salt and agroxone of Arabidopsis T1 plants transformed with 24DT07 nucleotide sequence, substituted 24DT07 nucleotide sequence, truncated 24DT07 nucleotide sequence, added 24DT07 nucleotide sequence, control nucleotide sequence respectively and wild-type Arabidopsis plants were performed after 18 days of planting.
(§2) Arabidopsis T1 plants transformed with 24DT07 nucleotide sequence, substituted 24DT07 nucleotide sequence, truncated 24DT07 nucleotide sequence, added 24DT07 nucleotide sequence and control nucleotide sequence respectively and wild-type Arabidopsis plants were sprayed with 2,4-D dimethyl ammonium salt (560 g ae/ha, 1-fold concentration in field), agroxone (560 g ae/ha, 1-fold concentration in field) and blank solvent (water). Resistance conditions of the plants were counted 7 days and 14 days after spraying. Plants with growth conditions consistent with blank solvent (water) 7 days after spaying were classified as highly resistant plants; Plants with curly rosette leaves 7 days after spaying were classified as moderately resistant plants; Plants incapable of bolting 14 days after spaying were classified as low-resistant plants and the dead plants 14 days after spaying were classified as non-resistant plants. Because each Arabidopsis T1 plant is an independent transformation event, significant differences of individual T1 responses can be expected under a given dose.

For test [2], the system named is Arabidopsis T1 plants transformed with added 24DT07 nucleotide sequence. The test is described as above. The settings on record: genotype 24DT07-a; for Highly resistant: 560 g ae/ha sprayed (1-fold field concentration), number of plants with growth consistent with blank solvent 7 days after spraying; for Non-resistant: 560 g ae/ha sprayed, number of dead plants 14 days after spraying.
From the text: as §1, §2

For test [3], the system named is Arabidopsis T1 plants transformed with substituted 24DT07 nucleotide sequence. The description is as above. The following applies: genotype 24DT07-i; for Highly resistant: 560 g ae/ha sprayed (1-fold field concentration), number of plants with growth consistent with blank solvent 7 days after spraying; for Non-resistant: 560 g ae/ha sprayed, number of dead plants 14 days after spraying.
From the text: as §1, §2

The test system of test [4] is Arabidopsis T1 plants transformed with truncated 24DT07 nucleotide sequence. Described as above. The following applies: genotype 24DT07-t; for Highly resistant: 560 g ae/ha sprayed (1-fold field concentration), number of plants with growth consistent with blank solvent 7 days after spraying; for Non-resistant: 560 g ae/ha sprayed, number of dead plants 14 days after spraying.
From the text: as §1, §2

The subject of test [5] is maize plants containing 24DT07 nucleotide sequence. The test can be described thus: Herbicide-resistance effect test of the transgenic corn plants (prop root development). The settings on record: comparison of the four 24DT07 genotypes; 8960 g ae/ha. The method, then:
(§3) Herbicide resistance effects tests to 2,4-D dimethyl ammonium salt and agroxone of maize plants containing 24DT07 nucleotide sequence, 24DT07 substituted nucleotide sequence, 24DT07 truncated nucleotide sequence, 24DT07 added nucleotide sequence, control nucleotide sequence respectively and wild type maize plants (stages V3-V4) were performed respectively.
(§4) Maize plants containing 24DT07 nucleotide sequence, 24DT07 substituted nucleotide sequence, 24DT07 truncated nucleotide sequence, 24DT07 added nucleotide sequence, control nucleotide sequence respectively and wild type maize plants were taken and spayed with 2,4-D dimethyl ammonium salt (8960 g ae/ha, 16-folds concentration in field), agroxone (8960 g ae/ha, 16-folds concentration in field) and blank solvent (water) respectively. Prop root development was counted 21 days after spaying. Three strains (S1, S2, and S3) of corn plants transfected with 24DT07 nucleotide sequence, two strains (S4 and S5) of corn plants transfected with 24DT07 substituted nucleotide sequence, two strains (S6 and S7) of corn plants transfected with 24DT07 truncated nucleotide sequence, two strains (S8 and S9) of corn plants transfected with 24DT07 added nucleotide sequence, two strains (S10 and S11) of corn plants transfected with control nucleotide sequence and 1 strain of wild type (CK) corn were selected and 10-15 plants from each stain were tested.

Test [6] deals with maize plants containing 24DT07 truncated nucleotide sequence. The description is as above. The settings on record: 8960 g ae/ha sprayed, 21 days after spraying. The method, then:
as §3, §4

Test [7] deals with maize plants containing 24DT07 substituted nucleotide sequence. The test is described as above. The settings on record: corn strain S5 (24DT07 substituted); 8960 g ae/ha sprayed; 21 days after spraying. The method, then:
as §3, §4

The mark [8] stands for this setting: genotype 24DT07, 560 g ae/ha sprayed.
[9] abbreviates: corn strain S7 (24DT07 truncated).

Regarding `CNC.O=C(O)COc1ccc(Cl)cc1Cl` [2,4-D dimethyl ammonium salt], the “differences of resistance levels between Arabidopsis T1 plants transformed with 24DT07, substituted, truncated and added 24DT07 nucleotide sequence” value in test [1] was “didn't show significant differences”. In addition, the Highly resistant in test [1] (genotype 24DT07) stood at 20; in test [2], 17; in test [3], 18; in test [4], 16. Moreover, the Non-resistant in test [1] (setting [8]), in test [2], in test [3] and in test [4] was 0 throughout. Moreover, the “differences of resistance levels between corn plants transformed with 24DT07, substituted, truncated and added 24DT07 nucleotide sequence” value in test [5] is “didn't show significant differences”. For the same compound, the “Ratio of the normally developed prop roots” value in test [6] (corn strain S6 (24DT07 truncated)) is 92.31%; in test [6] (setting [9]), 93.33%.

With `Cc1cc(Cl)ccc1OCC(=O)O` [agroxone], in test [1], the “differences of resistance levels between Arabidopsis T1 plants transformed with 24DT07, substituted, truncated and added 24DT07 nucleotide sequence” value was “didn't show significant differences”. The Highly resistant in test [1] (genotype 24DT07) is listed as 19; in test [2], 15; in test [3], 17; in test [4], 18. The Non-resistant in test [1] (setting [8]), in test [2], in test [3] and in test [4] was 0 in each case. In test [1] (genotype 24DT07, 560 g ae/ha sprayed, number of plants with curly rosette leaves 7 days after spraying), this compound registered a Moderately resistant of 3. In addition, the “differences of resistance levels between corn plants transformed with 24DT07, substituted, truncated and added 24DT07 nucleotide sequence” value in test [5] is “didn't show significant differences”. Besides, the results for the “Ratio of the normally developed prop roots” value in test [7] and in test [6] (setting [9]) were 92.86% and 91.67%, respectively.
